According to patent publication US7129226B2, “Mimetic insect allatostatin analogs for insect control” (The United States of America as represented by the …, priority 1998, dated 2006):
Where two headings read alike, the source gives them in different places. Blank lines part the entries; values can stand above or below the compound they belong to. Ends that are not written are not given here. Peptide text beside a SMILES is read from it. carboranyl propanoic acid = 2-o-carboranylpropanoic acid

Experiments:
[1] = test system: corpora allata of the cockroach Diploptera punctata (JH biosynthesis); assay: In vitro radiochemical assay of JH biosynthesis/release by corpora allata; type: cell-based; conditions: for bioactivity (inhibition of JH biosynthesis): result in words
Method: Rates of JH release were determined by the in vitro radiochemical method of Feyereisen and Tobe (Anal. Biochem., 111:372–375, 1981) and as modified by Tobe and Clarke (Tobe and Clarke, Insect Biochem., 15:175–179, 1985). The incorporation of L[^14C—S-methyl]-methionine (50 μM, specific radioactivity 1.48–2.03 GBq/mmol from New England Nuclear or Amersham) into JH III at its penultimate step of biosynthesis by CA incubated in 50 μl TC 199 (GIBCO, 1.3 mM Ca^2+, 2% Ficoll, methionine-free) was used to quantify JH release. Animals were anaesthetized on ice prior to dissection. Corpora allata were dissected directly into non-radioactive medium (only animals with oviposited basal oocytes were used for assay). Samples were dried with nitrogen and resuspended in 10 μl 1N HCl. Radioactive medium was added and neutralized with 10 μl NaOH. Individual CA were transferred from non-radioactive medium to radioactive medium and were incubated for 3 h. The amount of inhibition was expressed as the percent reduction from the untreated rate: [1-(treated rate/untreated rate))] ×100%. Each value represents replicate incubations of a minimum of 8 tests.
D. punctata females mate almost immediately following emergence. Therefore, newly emerged, mated females were transferred each day from the stock culture to an incubator and kept at 27±1° C. The relative humidity was approximately 50% with a 12 hour light:dark cycle. Insects were reared on Purina Lab Chow and water. Mating was confirmed by the presence of a spermatophore. Basal oocyte length was also measured (day 5=1.44–1.68 mm). Only day 5 mated females were utilized for the degradation studies. Day 7 mated females (only with oviposited basal oocytes) were the source of corpora allata for analysis of JH biosynthesis.
Radiochemical assays were conducted as described in Example 1.

in vitro [2] = type: in vitro ADME, Diploptera punctata
Method: (§1) Day 5 mated female D. punctata were anaesthetized on ice before dissection. Following dissection, tissues were stored in saline (0.9% NaCl pH 7.0–7.2 or cockroach saline; […] at pH 7.2–7.4) on ice. Tissues were cleaned of fat body and trachea and guts were cleaned. Midgut peritrophic membrane was removed, midguts cut open, the guts gently pulled through forceps and then washed 3×. Tissues were stored at −70° C. until sufficient material was collected.
(§2) Tissues were pooled and homogenized in saline on ice in microcentrifuge tubes (2.5 ml) for 2 min with an Omni hand held homogenizer. Homogenates were centrifuged at 1000 g for ten min at 4° C. to remove cellular debris. The pellet was discarded. Supernatant was subsequently centrifuged at 30,000 g for 30 min. Pellet (crude membrane preparation) was washed three times in homogenization buffer and resuspended in saline using the Omni homogenizer.
(§3) Crude membrane preparation or hemolymph was aliquoted into 1.5 ml microcentrifuge tubes for in vitro assay. Dip-AST5 (6 μM) or analog was added to each assay tube from a 1 mM stock solution. Total incubation volume was 500 μl. Tubes were placed on a shaker at room temp for the duration of the incubation time. Incubations were terminated by the addition of 200 μl 30% aqueous TFA. Samples were centrifuged at 10,000 g and the supernatant was applied to a C18 solid phase extraction column. None of the potential, synthetic Dip-AST5 metabolites are lost (unpublished data). The 17–40% acetonitrile fraction was concentrated with a Speed-Vac apparatus and held at −70° C. until HPLC analysis. Samples is were diluted in 0.5 ml 0.1% aqueous TFA, filtered through 0.2 μm micro-spin filters and injected onto the HPLC column. Separation of allatostatins and their catabolites, or analogs and their catabolites, was performed using reversed-phase HPLC (see HPLC methods). When available, retention times of synthetic metabolites were used as a reference to identify endogenous metabolites. Dip-AST5 fragments were synthesized by the Institute for Biosciences and Technology, Dept. of Entomology, Texas A & M University. Dip-ASTs were synthesized by the Core Facility of Insect Biotech Canada (Department of Biochemistry, Queen's University) or obtained from Sigma Chemical Co., St. Louis, Mo. 63178 USA. The identity of fragments resulting from peptidase degradation was also confirmed by FAB mass spectrometry by adding samples in a glycerol medium (1.5 μl) onto a copper probe, followed by bombardment with 8 kV Xe atoms on a Kratos MS-50 mass spectrometer. (Kratos, Manchester, UK).
(§4) Degradation experiments were analyzed by RP-HPLC using a 220×4.6 mm Brownlee Phenyl column (5 μm) on a Spectra-Physics chromatography system with a Spectra-Physics Chromjet integrator and a Spectra-Physics 8490 detector. Following a 5 min wash with 1.5% acetonitrile in 0.1 aqueous TFA, a linear gradient of acetonitrile (15–37.5% in 50 min; 37.5–65% in 5 min) at a flow rate of 0.5 ml/min was used to elute peptides and analogs. Fractions (0.5 ml) were collected each minute during the gradient run.

brain peptidases = assay: in vitro; type: in vitro ADME, Diploptera punctata; conditions: female, tissue homogenate; for half-life at 6 μM: Diploptera punctata
Method: as §1, §2, §3, §4

midgut peptidases = assay: in vitro; type: in vitro ADME, Diploptera punctata; conditions: female, tissue homogenate
Method: as §1, §2, §3, §4

in vitro [3] = type: in vitro ADME, Diploptera punctata; remark: listed apart in the source
Method: as §1
(§5) Hemolymph was collected following the method of King and Tobe (Insect Biochem., 18:793–805, 1988). Hemolymph was diluted 100× with saline.
as §3
as §4, with “Fractions (0.5 ml) were collected each minute during the gradient run.” left out

hemolymph peptidases = assay: in vitro; type: in vitro ADME, Diploptera punctata; conditions: female, Diploptera punctata
Method: as §1, §5, §3
as §4, with “Fractions (0.5 ml) were collected each minute during the gradient run.” left out

[4] = Penetration of analog through isolated cockroach cuticle (RPLC of well contents); type: in vitro ADME, American cockroach
Method: Adults of the American cockroach were obtained from. colonies at our facility (CMAVE). Animals, anesthetized by submersion in H2O for 30 min, were pinned ventral side up in a wax dissecting dish flooded with water. Lateral incisions along the margins of the abdominal sternites were made between segments 1–7. The epidermal layers including the cuticle and epidermal cells were lifted up and associated tissue was cleared using forceps prior to removal. The epidermal tissue was placed cell side up on a microscope slide and the cells were scraped from the cuticle using a glass cover slip. To further clean the cuticle of cellular debris the tissue was floated, cell side down, in a beaker containing H2O and subjected to sonication in a water bath at 30° C. for 30 min. The cuticle strips were then washed 3× in clean water. Pieces of cuticle, ca. 0.4 cm^2, composed of individual sternites without associated intersegmental membranes were then dissected away from remaining cuticle.
Incubation of cuticle was accomplished using the wells of ELISA plates (Corning, 96 well Easy Wash). […]
Dried samples were reconstituted in 35% acetonitrile (MeCN) (Burdick and Jackson) prior to analysis. […] Data acquired from analyses were reduced and analyzed using NCSS 97 software using regression analysis and T-Tests.

[5] = 3 h in vitro radiochemical assay, single 7-day mated CA, read-out: IC50, half-maximal inhibition of JH release

IC50 ([1]; read-out: IC50): 2.12 nM
resistance to cleavage by membrane-bound enzymes (in vitro [2]): little resistance
half-life (brain peptidases): 0.287 h
half-life (midgut peptidases): 0.377 h
Compound: CC(C)C[C@H](NC(=O)CNC(=O)C1(NC(=O)[C@H](CC(N)=O)NC(=O)[C@H](Cc2ccc(O)cc2)NC(=O)[C@@H]2CCCN2C(=O)[C@H](CCCNC(=N)N)NC(=O)[C@H](C)N)Cc2ccccc2C1)C(N)=O [analog 396-1, Ala-Arg-Pro-Tyr-Asn-Aic-Gly-Leu-NH2] (HELM PEPTIDE1{A.R.P.Y.N.[O=C(C1(N[*:1])Cc2ccccc2C1)[*:2]].G.L.[am]}$$$$V2.0; N-terminus assumed)
bioactivity (inhibition of JH biosynthesis) [1]: significant bioactivity

Compound: CC(C)C[C@H](NC(=O)C1(NC(=O)[C@H](Cc2ccccc2)NC(=O)[C@H](CC(N)=O)NC(=O)[C@H](Cc2ccc(O)cc2)NC(=O)[C@@H]2CCCN2C(=O)[C@H](CCCNC(=N)N)NC(=O)[C@H](C)N)CC1)C(N)=O [analog 397-2, Ala-Arg-Pro-Tyr-Asn-Phe-Cpa-Leu-NH2] (HELM PEPTIDE1{A.R.P.Y.N.F.[O=C(C1(N[*:1])CC1)[*:2]].L.[am]}$$$$V2.0; N-terminus assumed)
IC50 [1, 5]: 172 nM
bioactivity (inhibition of JH biosynthesis) [1]: significant bioactivity
resistance to cleavage by membrane-bound enzymes (in vitro [2]): little resistance
half-life at 6 μM (brain peptidases): 1.01 h
half-life at 6 μM (midgut peptidases; Diploptera punctata): 0.347 h

EC50 ([1]; in another assay, read-out: activity (ED50)): 0.644 nM
Compound: carboranyl propanoic acid-Ser-Phe-Gly-Leu-NH2 ({carboranyl propanoic acid}-SFGL-NH2)

Compound: CC(C)C[C@H](NC(=O)C1(NC(=O)[C@H](Cc2ccccc2)NC(=O)[C@H](CC(N)=O)NC(=O)CCc2ccccc2)CC1)C(N)=O [AST(b)φ2, Hca-Asn-Phe-Cpa-Leu-NH2] (HELM PEPTIDE1{[O=C(CCc1ccccc1)[*:2]].N.F.[O=C(C1(N[*:1])CC1)[*:2]].L.[am]}$$$$V2.0)
IC50 [1, 5]: 1550 nM
bioactivity (inhibition of JH biosynthesis) [1]: significant biological activity
longer half-life than the native neuropeptide Dip-AST5 (in vitro [3]): 8 fold
resistance to degradation by enzymes (in vitro [3]): extreme resistance
half-life at 6 μM (hemolymph peptidases): 20.2 h
longer half-life than the native neuropeptide Dip-AST5 (in vitro [2]): 600 fold
resistance to midgut peptidases (in vitro [2]): completely resistant
Half-life, Midgut (in vitro [2]; tissue homogenate): ∞
half-life at 6 μM (brain peptidases): 180 h

Compound: CC(C)C[C@H](NC(=O)CNC(=O)[C@H](Cc1ccccc1)NC(=O)[C@H](CC(N)=O)NC(=O)[C@H](Cc1ccc(O)cc1)NC(=O)CC1c2ccccc2-c2ccccc21)C(N)=O [analog 525] (HELM PEPTIDE1{[O=C(CC1c2ccccc2-c2ccccc21)[*:2]].Y.N.F.G.L.[am]}$$$$V2.0)
release rate through the cuticle ([4]; 0.5 nmol applied to cuticle, rate stabilized after six hours): about 1.5 pmol/h
penetration of the cuticle ([4]; cockroach cuticle, result in words): penetrated the cuticle effectively

IC50 [1, 5]: 3.12 nM
IC50 ([1]; read-out: IC50): 3.1 nM
half-life at 6 μM (in vitro [3]; female, Diploptera punctata): 2.55 h
Compound: DRLYSFGL-NH2 [Dip-AST5, reference compound]
